# Where a SMILES comes first, the peptide text is derived from it. Bridges are numbered along the chain shown (N, C = ends). [ ]: non-standard residue; d: D form. hPhe(3-Cl-4-CF3) = N[C@@H](CCc1ccc(C(F)(F)F)c(Cl)c1)C(=O)O; NPrPhe(4-CF3) = CCCN[C@@H](Cc1ccc(C(F)(F)F)cc1)C(=O)O; NMeGly(cPent) = CN[C@H](C(=O)O)C1CCCC1; Pro(4,4-F2) = O=C(O)[C@@H]1CC(F)(F)CN1; NMeD = CN[C@@H](CC(=O)O)C(=O)O; NMeL = CN[C@@H](CC(C)C)C(=O)O; Ac4c = NC1(C(=O)O)CCC1; Sar = CNCC(=O)O
# Columns and labels:
# [1] = biological target: GDP-bound HRAS wild-type protein (Homo sapiens, UniProt P01112); experiment: Binding to HRAS by surface plasmon resonance (SPR), Single Cycle Kinetics; details: for HRAS/KRAS (ratio of KD value with respect to HRAS to KD value with respect to KRAS): GDP-bound HRAS wild-type vs GDP-bound KRAS wild-type
# [2] = biological target: GDP-bound NRAS wild-type protein (Homo sapiens, UniProt P01111); experiment: Binding to NRAS by surface plasmon resonance (SPR), Single Cycle Kinetics; details: for NRAS/KRAS (ratio of KD value with respect to NRAS to KD value with respect to KRAS): GDP-bound NRAS wild-type vs GDP-bound KRAS wild-type
# [3] = SPR, GDP-bound wild-type proteins
# Sequence of GDP-bound NRAS wild-type protein (P01111 whole entry): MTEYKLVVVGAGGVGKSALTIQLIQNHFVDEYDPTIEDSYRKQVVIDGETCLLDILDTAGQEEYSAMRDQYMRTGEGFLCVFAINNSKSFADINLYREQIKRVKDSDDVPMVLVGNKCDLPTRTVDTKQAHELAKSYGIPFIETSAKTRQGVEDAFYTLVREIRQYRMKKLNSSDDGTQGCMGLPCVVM
# Sequence of GDP-bound HRAS wild-type protein (P01112 whole entry): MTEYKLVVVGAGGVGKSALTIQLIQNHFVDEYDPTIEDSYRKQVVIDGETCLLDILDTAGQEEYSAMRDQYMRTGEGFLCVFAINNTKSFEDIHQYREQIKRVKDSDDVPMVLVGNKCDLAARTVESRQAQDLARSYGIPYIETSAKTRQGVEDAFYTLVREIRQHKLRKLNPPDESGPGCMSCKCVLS
SMILES,HRAS/KRAS (ratio of KD value with respect to GDP-bound HRAS wild-type protein to KD value with respect to KRAS) ([1]; class symbols),NRAS/KRAS (ratio of KD value with respect to GDP-bound NRAS wild-type protein to KD value with respect to KRAS) ([2]; class symbols),HRAS/KRAS (ratio of KD value with respect to HRAS to KD value with respect to KRAS) ([1]; SPR),NRAS/KRAS (ratio of KD value with respect to NRAS to KD value with respect to KRAS) ([2]; SPR),further results
CCOC[C@H]1C(=O)N[C@@H]([C@@H](C)CC)C(=O)N(C)CC(=O)N(C)[C@H]2C/C=C\CCN(C2=O)[C@@H](Cc2ccc(C(F)(F)F)cc2)C(=O)N(C)CC(=O)N[C@@H](CCc2ccc(Cl)c(Cl)c2)C(=O)N2C[C@H](OCC)C[C@H]2C(=O)NC2(CC(C)(C)C2)C(=O)N(C)[C@@H](CC2CCC2)C(=O)N(C)[C@H](C(=O)N(C)C)CC(=O)N1C [PP2767],A (a compound having 10 or more and less than 20 is denoted as A),A (a compound having 10 or more and less than 20 is denoted as A),,,
"CCCN1C(=O)CN(C)C(=O)CN(C)C(=O)[C@H]([C@@H](C)CC)NC(=O)[C@H](CC(C)C)N(C)C(=O)C[C@@H](C(=O)N(C)C)N(C)C(=O)[C@H](C2CCCC2)N(C)C(=O)C2(CCC2)NC(=O)[C@@H]2CC(F)(F)CN2C(=O)[C@H](CCc2ccc(C(F)(F)F)c(Cl)c2)NC(=O)CN(C)C(=O)[C@@H]1Cc1ccc(C(F)(F)F)cc1 [PP0414] ([NMeL]I[Sar][Sar][NPrPhe(4-CF3)][Sar][hPhe(3-Cl-4-CF3)][Pro(4,4-F2)][Ac4c][NMeGly(cPent)][NMeD]-NMe2; lactam N-11)",,,,,HRAS/KRAS (ratio of KD value with respect to GDP-bound HRAS wild-type protein to KD value with respect to KRAS) ([1]; SPR): C (A compound having a KD ratio of 0.1 or more and less than 3 is denoted as C); NRAS/KRAS (ratio of KD value with respect to GDP-bound NRAS wild-type protein to KD value with respect to KRAS) ([2]; SPR): B (a compound having 3 or more and less than 10 is denoted as B)
CCO[C@@H]1C[C@H]2C(=O)NC3(CC(C)(C)C3)C(=O)N(C)[C@@H](C(CC)CC)C(=O)N(C)[C@H](C(=O)N(C)C)CC(=O)N(C)[C@@H](COC)C(=O)N[C@@H]([C@@H](C)CC)C(=O)N(C3CC3)CC(=O)N(C)[C@H]3C/C=C\CCN(C3=O)[C@@H](CC3CCCCC3)C(=O)N(C)CC(=O)N[C@@H](CCc3cc(F)c(C(F)(F)F)c(F)c3)C(=O)N2C1 [PP2564],A (a compound having 10 or more and less than 20 is denoted as A),A (a compound having 10 or more and less than 20 is denoted as A),,,
CCO[C@@H]1C[C@H]2C(=O)NC3(CC(C)(C)C3)C(=O)N(C)[C@@H](C(CC)CC)C(=O)N(C)[C@H](C(=O)N3CCCC3)CC(=O)N(C)[C@@H](CC)C(=O)N[C@@H]([C@@H](C)CC)C(=O)N(C)CC(=O)N(C)[C@H]3C/C=C\CCN(C3=O)[C@@H](Cc3ccc(C)cc3)C(=O)N(C)CC(=O)N[C@@H](CCc3cc(F)c(C(F)(F)F)c(F)c3)C(=O)N2C1 [PP2149],,,A (a compound having 10 or more and less than 20 is denoted as A),A (a compound having 10 or more and less than 20 is denoted as A),
C#CC[C@H]1C(=O)N[C@@H]([C@@H](C)CC)C(=O)N(C)CC(=O)N(C)[C@H]2C/C=C\CCN(C2=O)[C@@H](Cc2ccc(C(F)(F)F)cc2)C(=O)N(C)CC(=O)N[C@@H](CCc2cc(F)c(C(F)(F)F)c(F)c2)C(=O)N2C[C@H](OCC)C[C@H]2C(=O)NC2(CC(C)(C)C2)C(=O)N(C)[C@@H](C2CCCC2)C(=O)N(C)[C@H](C(=O)N(C)CCC)CC(=O)N1C [PP2074],,,A (a compound having 10 or more and less than 20 is denoted as A),A (a compound having 10 or more and less than 20 is denoted as A),
CCO[C@@H]1C[C@H]2C(=O)NC3(CC(C)(C)C3)C(=O)N(C)[C@@H](C3CCCC3)C(=O)N(C)[C@H](C(=O)N(C)C)CC(=O)N(C)[C@H]3CCCCCCc4ccc(cc4)C[C@@H](C(=O)N(C)CC(=O)N[C@@H](CCc4ccc(C(F)(F)F)c(OC)c4)C(=O)N2C1)N1CC/C=C\C[C@@H](C1=O)N(C)C(=O)CN(C)C(=O)[C@H]([C@@H](C)CC)NC3=O [PP3066],,,,,"HRAS/KRAS (ratio of KD value with respect to GDP-bound HRAS wild-type protein to KD value with respect to KRAS) [1, 3]: B (a compound having 3 or more and less than 10 is denoted as B); NRAS/KRAS (ratio of KD value with respect to GDP-bound NRAS wild-type protein to KD value with respect to KRAS) [2, 3]: A (a compound having 10 or more and less than 20 is denoted as A)"

# Reference: patent US20250230193A1, “CYCLIC COMPOUND HAVING SELECTIVE KRAS INHIBITORY EFFECT ON HRAS AND NRAS” (CHUGAI SEIYAKU KABUSHIKI KAISHA, priority 2022, published 2025)
